Test results as given in PubChem BioAssay AID179 (DTP/NCI, 2004).
Several values for one entry are separate records, joined by “and”; a condition that tells them apart may be missing. Equal values may be shown once. Activity calls are given as the source filed them.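 The calls were made as follows: active = compounds giving half or more protection of infected cells from virus-caused growth loss, again on retest; inactive = the rest.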 Where a SMILES comes first, the peptide text is derived from it.

System: CEM cells HIV-1 protection, formazan growth assay
Test: NCI AIDS Antiviral Assay
Details: for IC50: measured here: growth of uninfected CEM cells
In short: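 Human CEM cells, uninfected and HIV-1-infected, received five drug concentrations, and growth was read by soluble formazan assay. Compounds giving at least 50% protection were retested; reproducible 100% protection defined confirmed active.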

| SMILES | EC50 [µM] | IC50 | outcome |
| --- | --- | --- | --- |
| CC1=CCS(=O)(=O)C1C(O)C1=C(C)CCCC1(C)C (configuration not stated) | > 200 | 40.7 µM |  |
| Cc1cc(C)nc(NC(N)=NCCc2ccccc2)n1 | > 200 | 3.31 µM |  |
| CCc1cccc(C)c1NC(C)=O |  |  | inactive |
| Cc1ccc(CCCCCOc2ccc(C3=NCCO3)cc2)s1 |  |  | inactive |
| CCOc1ccccc1NC(=O)/C=C1\NC(=O)CS1 | > 158 | 129 µM |  |
| CCOC(=O)c1c(NC(=O)c2ccc(Br)cc2)sc2c1CCCC2 | > 200 | > 200 µM |  |
| N#CCN1CCCCCc2ccccc21 | > 200 | > 200 µM |  |
| CCOC(=O)CCC(NC(=O)c1ccc(Nc2cnc3cc(C(F)(F)F)ccc3n2)cc1)C(=O)OCC (configuration not stated) | > 200 | 191 µM |  |
| NCCCNCCCCNC(=O)C(O)NC(=O)CCCCCCN=C(N)N (configuration not stated) | 288 | 501 µM |  |
| c1ccc(SC2CCCO2)cc1 (configuration not stated) |  |  | inactive |
| CCCN=C(N)C(C)=O | > 1950 | > 1950 µM |  |
| Cn1cc(C(=O)c2ccccc2)cc(C(=O)c2ccccc2)c1=O |  |  | inactive |
| CC(=O)OCC1OC(n2c3c(c(-c4ccc(Cl)cc4)c(C#N)c2=S)C(=O)CC(C)(C)C3)C(OC(C)=O)C(OC(C)=O)C1OC(C)=O (configuration not stated) | > 200 | 6.46 µM |  |
| CC(C)CC(NC(=O)C(Cc1cnc[nH]1)NC(=O)C(CC(N)=O)NC(=O)C(NC(=O)C(CO)NC(=O)C(Cc1ccc(O)cc1)NC(=O)C(CO)NC(=O)C(C)N)C(C)O)C(=O)O (configuration not stated) (H-ASYSTNHL-OH; configuration not given here) | > 70.8 | > 70.8 µM |  |
| CC(Oc1ccc2c(=O)cc(-c3ccccc3)oc2c1)C(=O)O (configuration not stated) |  |  | inactive |
| O=C1c2c(O)ccc(O)c2C(=O)c2c(NCCOCCO)ccc(NCCOCCO)c21 | > 200 | 3.55 µM |  |
| CC(NC(C)(C)C)C(=O)c1cccc(Cl)c1 (configuration not stated) | > 200 | > 200 µM |  |
| CCCCCCC1CC(=O)C1(Cl)Cl (configuration not stated) |  |  | inactive |
| COc1cccc2c1C(=O)c1c(O)c3c(c(O)c1C2=O)C[C@@](O)(C(=O)CO)C[C@@H]3OC1CC(N2CCOCC2)C(O)C(C)O1 (some centres not stated) |  |  | inactive |
| Nc1ncnc2oc(-c3cccs3)nc12 | > 200 | > 200 µM |  |
| O=C(NN1C(=O)C(Cl)C1c1ccc(O)cc1)c1ccccc1O (configuration not stated) | > 21.9 | 10.2 µM |  |
| O=[N+]([O-])c1ccc(NS(=O)(=O)C(F)(F)F)cc1 | > 200 | > 200 µM |  |
| COc1nc(NC2OCC(OC(C)=O)C(OC(C)=O)C2OC(C)=O)c(-c2csc(N)n2)c(=O)n1C (configuration not stated) |  |  | inactive |

| SMILES | EC50 [µM] | IC50 | outcome |
| --- | --- | --- | --- |
| OC1NC2Nc3ccccc3NC2NC1O (configuration not stated) | > 200 | > 200 µM |  |
| Cc1ccc(S(=O)(=O)Nc2nc3ccccc3c(=O)n2C2CCCCC2)cc1 | > 200 | > 200 µM |  |
| COc1ccc(CCNC(=O)Cc2ccccc2CO)cc1OC | > 200 | > 200 µM |  |
| CCOC(=O)c1ccc(CS(=O)(=O)c2ccccc2)c([N+](=O)[O-])c1 | > 102 | > 102 µM |  |
| Nc1c(SSc2ccc3ccccc3c2N)ccc2ccccc12 | > 50.1 | 14.8 µM |  |
| CN1C(N)=NC(=O)/C1=C/c1ccccc1 | > 200 | 115 µM |  |
| O=C(c1ccccc1)n1c(Cc2ccccc2)nc2cc(C34CC5CC(CC(C5)C3)C4)ccc21 | > 100 | 16.6 µM |  |
| CN(C)CC1CN(C(=O)Nc2ccccc2)C(=N)O1 (configuration not stated) | > 200 | > 200 µM |  |
| CCN(CC)CCNc1ccc([N+](=O)[O-])c2nc3ccccc3c(N)c12 | > 100 | 0.575 µM |  |
| Cc1cc(NS(=O)(=O)c2ccc(Nc3c4ccccc4nc4c(C(=O)Nc5ccc(S(=O)(=O)N=C(N)N)cc5)ccc(Cl)c34)cc2)no1 | > 51.3 | > 51.3 µM |  |
| CCN(CC)CC(=O)Nc1cc(Cl)ccc1OC | > 200 | 178 µM |  |
| Cc1cc2c(cc1C)[n+](=O)cc(C(=O)C/C(=N/NC(=S)NN)C(=O)Nc1cccc(C(F)(F)F)c1)n2[O-] | > 126 | > 126 µM |  |
| COC[C@@]12CCC(OC)C34[C@@H]5C[C@@]6(O)C(OC(=O)c7ccccc7)[C@@H]5[C@@]5(O[C@@H]5[C@@H]6OC)[C@@H](C(OC)[C@@H]31)[C@@H]4N(C)C2 (some centres not stated) |  |  | inactive |
| O=c1[nH]c(Nc2cccc(Cl)c2)nc2nc[nH]c12 | > 200 | 151 µM |  |
| N#CC(C#N)=C1CCC2C(=C(C#N)C#N)CCC12 (configuration not stated) |  |  | inactive |
| Cc1cc2cc3c(C)cc(=O)oc3c(C)c2o1 | > 56.2 | > 56.2 µM |  |
| Cc1cn(COCCCO)c(=O)[nH]c1=O | > 200 | > 200 µM |  |
| COc1ccc2nc3cccc([N+](=O)[O-])c3c(NCCN(C)C)c2c1 | > 2 | 0.0977 µM |  |
| N[C@@H](CSSC[C@H](N)C(=O)OCc1ccccc1)C(=O)OCc1ccccc1 | > 200 | 83.2 µM |  |
| CN(C)CCCNCc1cc(N(C)C)cc(CNCCCN(C)C)n1 | > 200 | > 200 µM |  |
| COc1ccc2nc3ccc(OC)cc3c(S(=O)Cc3ccc([N+](=O)[O-])cc3)c2c1 (configuration not stated) | > 200 | 3.24 µM |  |
| N#Cc1c(N)nc(N)nc1Nc1ccc(I)cc1 | > 200 | 23.4 µM |  |
| N#C/C(=C\N1CC(=O)NC1=S)C(=O)c1ccc2ccccc2c1 | > 200 | 158 µM |  |

| SMILES | EC50 [µM] | IC50 | outcome |
| --- | --- | --- | --- |
| COc1ccc(N2C(=O)C3c4[nH]c5ccc(C)cc5c4C4CCC(C)CC4C3C2=O)cc1 (configuration not stated) | > 100 | > 100 µM |  |
| Cc1cc2c(c(C(N)=O)c1C)-c1cc(Cl)cc(Cl)c1C2=O | > 22.4 | > 22.4 µM |  |
| C/C(=N/NC(=O)c1ccncc1)c1ccc(NC(=O)C(=O)Nn2c(=S)[nH]c3ccccc3c2=O)cc1 | > 51.3 | > 51.3 µM |  |
| COc1ccc2nc3cc(Cl)ccc3c(SCC(=O)Nc3ccccc3-c3ccccc3NC(=O)CSc3c4ccc(Cl)cc4nc4ccc(OC)cc34)c2c1 | > 8.91 | > 8.91 µM |  |
| CNc1ccc(/C=C2\C=Cc3ccccc32)cc1 | > 200 | > 200 µM |  |
| O=Nc1ccc(N(CCO)CCO)cc1 | > 200 | 2.95 µM |  |
| O[Si](c1ccc(C(F)(F)F)cc1)(c1cccc(C(F)(F)F)c1)c1cccc(C(F)(F)F)c1 | > 200 | 10.5 µM |  |
| CC(=O)Oc1cc2c(n(C)c1=O)CCC2 | > 200 | 155 µM |  |
| NC(N)=N/N=C\CC(O)CO (configuration not stated) | > 200 | > 200 µM |  |
| CCOC(=O)c1cc2c(C(=O)c3ccc([N+](=O)[O-])cc3)c(C(C)=O)ccc2[nH]1 | > 200 | 174 µM |  |
| O=C1C=CC(=O)N1n1c(Cc2ccccc2)n[nH]c1=O | > 200 | > 200 µM |  |
| COC1=CC=C2Nc3nc(N)[nH]c(=O)c3SC2N1 (configuration not stated) | > 178 | > 178 µM |  |
| CN(NC(=O)Nc1cccc2ccccc12)c1ccccc1 | > 24.5 | > 24.5 µM |  |
| CO[C@@]12[C@@H]3N[C@@H]3CN1C1=C(C(=O)C(N3CCOCC3)=C(C)C1=O)[C@@H]2COC(N)=O | > 200 | > 200 µM |  |
| C(=C\C(Sc1ccccc1)c1ccccc1)/NNC1=NC(c2ccccc2)C(c2ccccc2)=NN1 (configuration not stated) | > 14.8 | > 14.8 µM |  |
| Cc1cc(C)nc(NS(=O)(=O)c2ccc(Nc3c4ccccc4nc4ccc(C(=O)Nc5ccc(S(=O)(=O)N=C(N)N)cc5)cc34)cc2)n1 | > 93.3 | 47.9 µM |  |
| CCCCCCc1cn([C@H]2C[C@H](O)[C@@H](CO)O2)c(=O)[nH]c1=O |  |  | inactive |
| CC(=C(C#N)C#N)c1ccc(F)cc1 | > 138 | 112 µM |  |
| C=C1C(=O)[C@@]23C(O)C[C@@H]4C(C)(C)CCCC4(COC(C)=O)[C@@H]2[C@@H](O)C[C@@H]1[C@H]3O (some centres not stated) | > 631 | 1.95 µM and 1.02 µM |  |
| Cc1cc(=O)n(CC(=O)O)c2ccccc12 | > 200 | 105 µM |  |
| Nc1ncnc2nc(-c3ccc(C[P+](c4ccccc4)(c4ccccc4)c4ccccc4)cc3)[nH]c12 | > 200 | > 200 µM |  |
| O=C(NC1=NC2C=CC([N+](=O)[O-])=CC2S1)C(=O)Nn1c(=S)[nH]c2ccccc2c1=O (configuration not stated) | > 81.3 | 74.1 µM |  |
| CCOC(=O)/C(=C/c1cccc2ccccc12)P(=O)(OCC)OCC | > 257 | 17 µM |  |

| SMILES | EC50 [µM] | IC50 | outcome |
| --- | --- | --- | --- |
| CSC1=N/C(=C\c2ccc(C)cc2)C(=O)N1CN1CCCCC1 | > 200 | > 200 µM |  |
| COc1ccc(C2Oc3ccc(O)cc3[C@@H]2C)cc1OC (some centres not stated) | > 174 | > 174 µM |  |
| O=C(COC(=O)c1cccc2c(=O)c3ccccc3[nH]c12)Nc1ccccc1 |  |  | inactive |
| CSc1ccc(C(=C=C=C(c2ccc(SC)s2)c2ccc(SC)s2)c2ccc(SC)s2)s1 | > 200 | > 200 µM |  |
| O=C(Nc1cccc([N+](=O)[O-])c1)OCc1ccc2c(c1)OCO2 |  |  | inactive |
| COC(=O)c1cc(Cc2cc(C(=O)OC)c(OC)c(C(F)(F)F)c2)cc(C(F)(F)F)c1OC | > 200 | 25.7 µM |  |
| CCOC(=O)/C(=C\c1cccc([N+](=O)[O-])c1)[Se]c1ccccc1 | > 26.3 | 10.7 µM |  |
| O=C(Cn1c(-c2ccccc2)cc2ccccc21)N1CCOCC1 | > 200 | > 200 µM |  |
| O=C1CCNC/C1=C\c1ccccc1 | > 6920 | 19.1 µM |  |
| CC1CC(c2ccc(Cl)cc2)=Nc2ccccc2S1 (configuration not stated) | > 6.92 | > 6.92 µM |  |
| O=S(=O)(c1ccccn1)c1nc2ccccc2s1 |  |  | inactive |
| OCc1ccc(C2CC(c3ccco3)=NN2c2ccccc2)o1 (configuration not stated) | > 17 | > 17 µM |  |
| Clc1ccc(CN2CCCN(Cc3ccc(Cl)c(Cl)c3)S2)cc1Cl | > 61.7 | > 61.7 µM |  |
| Nc1nc2c(ncn2C2C=CC(CO)C2)c(=O)[nH]1 (configuration not stated) | 36.3 | 324 µM |  |
| COC(=O)C1=C(c2ccc(Cl)cc2)C(O)N=C(NN)N1 (configuration not stated) | > 832 | > 832 µM |  |
| S=C(NCCCCCCNC(=S)Nc1c2ccccc2nc2ccccc12)Nc1c2ccccc2nc2ccccc12 |  |  | inactive |
| Cc1cccc(N(CC(=O)O)S(=O)(=O)c2ccccc2)c1 |  |  | inactive |
| CC(SCCCCCCCCCCCCSC(C)C(=O)O)C(=O)O (configuration not stated) | > 79.4 | > 79.4 µM |  |
| CCn1ncc(N=O)c1N | > 200 | > 200 µM |  |
| CC(=O)N(O)c1ccc(Cl)cc1 | > 200 | > 200 µM |  |
